Data set [1] has as its system Cyperus rotundus. Description: Herbicidal activity against Cyperus rotundus assessed as total fresh weight at 0.75 kg/ha applied as spray during post-emergence (reference value: 23.6 MT/ha). Type of data set: functional.
Data set [2] relates to Allium cepa. Description: Phytotoxicity in Allium cepa (onion) seedling assessed as total fresh weight at 0.75 kg/ha applied as spray during post-emergence (reference value: 7.71 MT/ha). Type of data set: organism-based. The conditions noted are these: in vivo, other.
In data set [3] the test system is Cyperus rotundus. Description: Herbicidal activity against Cyperus rotundus assessed as decrease in total dry weight at 0.75 kg/ha applied as spray during post-emergence relative to weed-infested control. Type of data set: functional. Further details: scale not given: the % may be the effect or the level left.
For data set [4], the system named is Malva sylvestris. Description: Herbicidal activity against Malva sylvestris assessed as total fresh weight at 0.75 kg/ha applied as spray during post-emergence (reference value: 23.6 MT/ha). Type of data set: functional.
Data set [5] has as its system Malva sylvestris. Description: Herbicidal activity against Malva sylvestris assessed as total dry weight at 0.75 kg/ha applied as spray before seed sowing (reference value: 4.1 MT/ha). Type of data set: functional.
For data set [6], the system named is Malva sylvestris. Description: Herbicidal activity against Malva sylvestris assessed as decrease in total dry weight at 0.75 kg/ha applied as spray during post-emergence relative to weed-infested control. Set-up: scale not given: the % may be the effect or the level left. Type of data set: functional.
Data set [7] relates to Chenopodiastrum murale. Description: Herbicidal activity against Chenopodium murale assessed as total dry weight at 0.75 kg/ha applied as spray before seed sowing (reference value: 4.1 MT/ha). It counts as functional.
Data set [8] deals with Chenopodiastrum murale. Description: Herbicidal activity against Chenopodium murale assessed as decrease in total dry weight at 0.75 kg/ha applied as spray during postemergence relative to weed-infested control. Type of data set: functional. Set-up: scale not given: the % may be the effect or the level left.
Data set [9] relates to Cyperus rotundus. Description: Herbicidal activity against Cyperus rotundus assessed as total fresh weight at 0.75 kg/ha applied as spray before seed sowing (reference value: 23.6 MT/ha). Type of data set: functional.
The subject of data set [10] is Chenopodiastrum murale. Description: Herbicidal activity against Chenopodium murale assessed as total fresh weight at 0.75 kg/ha applied as spray during postemergence (reference value: 23.6 MT/ha). It counts as functional.
Data set [11] relates to Cyperus rotundus. Description: Herbicidal activity against Cyperus rotundus assessed as total dry weight at 0.75 kg/ha applied as spray before seed sowing (reference value: 4.1 MT/ha). Type of data set: functional.
Data set [12] concerns Chenopodiastrum murale. Description: Herbicidal activity against Chenopodium murale assessed as total fresh weight at 0.75 kg/ha applied as spray before seed sowing (reference value: 23.6 MT/ha). It counts as functional.
The test system of data set [13] is Allium cepa. Description: Phytotoxicity in Allium cepa (onion) seedling assessed as total fresh weight at 0.75 kg/ha applied as spray before seed sowing (reference value: 7.71 MT/ha). Conditions: in vivo, other. It counts as organism-based.
In data set [14] the test system is Malva sylvestris. Description: Herbicidal activity against Malva sylvestris assessed as total fresh weight at 0.75 kg/ha applied as spray before seed sowing (reference value: 23.6 MT/ha). Type of data set: functional.
Data set [15] relates to Cyperus rotundus. Description: Herbicidal activity against Cyperus rotundus assessed as total dry weight at 0.35 kg/ha applied as spray before seed sowing (reference value: 4.1 MT/ha). It counts as functional.
Data set [16] concerns Chenopodiastrum murale. Description: Herbicidal activity against Chenopodium murale assessed as total fresh weight at 0.35 kg/ha applied as spray before seed sowing (reference value: 23.6 MT/ha). Type of data set: functional.
Data set [17] has as its system Cyperus rotundus. Description: Herbicidal activity against Cyperus rotundus assessed as total fresh weight at 0.35 kg/ha applied as spray before seed sowing (reference value: 23.6 MT/ha). It counts as functional.
Data set [18] relates to Chenopodiastrum murale. Description: Herbicidal activity against Chenopodium murale assessed as total dry weight at 0.35 kg/ha applied as spray before seed sowing (reference value: 4.1 MT/ha). It counts as functional.
The subject of data set [19] is Malva sylvestris. Description: Herbicidal activity against Malva sylvestris assessed as total dry weight at 0.35 kg/ha applied as spray before seed sowing (reference value: 4.1 MT/ha). Type of data set: functional.
For data set [20], the system named is Allium cepa. Description: Phytotoxicity in Allium cepa (onion) seedling assessed as total fresh weight at 0.35 kg/ha applied as spray before seed sowing (reference value: 7.71 MT/ha). Conditions: in vivo, other. It counts as organism-based.
Data set [21] has as its system Malva sylvestris. Description: Herbicidal activity against Malva sylvestris assessed as total fresh weight at 0.35 kg/ha applied as spray before seed sowing (reference value: 23.6 MT/ha). Type of data set: functional.
Data set [22] has as its system Malva sylvestris. Description: Herbicidal activity against Malva sylvestris assessed as total dry weight at 7 kg/ha applied as spray before seed sowing (reference value: 4.1 MT/ha). Type of data set: functional.
Data set [23] relates to Allium cepa. Description: Phytotoxicity in Allium cepa (onion) seedling assessed as total fresh weight at 7 kg/ha applied as spray before seed sowing (reference value: 7.71 MT/ha). Type of data set: organism-based. Conditions: in vivo, other.
The test system of data set [24] is Chenopodiastrum murale. Description: Herbicidal activity against Chenopodium murale assessed as total dry weight at 7 kg/ha applied as spray before seed sowing (reference value: 4.1 MT/ha). Type of data set: functional.
Data set [25] concerns Cyperus rotundus. Description: Herbicidal activity against Cyperus rotundus assessed as total dry weight at 7 kg/ha applied as spray before seed sowing (reference value: 4.1 MT/ha). It counts as functional.
Data set [26] concerns Malva sylvestris. Description: Herbicidal activity against Malva sylvestris assessed as total fresh weight at 7 kg/ha applied as spray before seed sowing (reference value: 23.6 MT/ha). It counts as functional.
The subject of data set [27] is Cyperus rotundus. Description: Herbicidal activity against Cyperus rotundus assessed as total fresh weight at 7 kg/ha applied as spray before seed sowing (reference value: 23.6 MT/ha). Type of data set: functional.
Data set [28] has as its system Chenopodiastrum murale. Description: Herbicidal activity against Chenopodium murale assessed as total fresh weight at 7 kg/ha applied as spray before seed sowing (reference value: 23.6 MT/ha). Type of data set: functional.
In data set [29] the test system is Chenopodiastrum murale. Description: Herbicidal activity against Chenopodium murale assessed as total fresh weight at 2.45 kg/ha applied as spray before seed sowing (reference value: 23.6 MT/ha). Type of data set: functional.
In data set [30] the test system is Cyperus rotundus. Description: Herbicidal activity against Cyperus rotundus assessed as total dry weight at 2.45 kg/ha applied as spray before seed sowing (reference value: 4.1 MT/ha). It counts as functional.
In data set [31] the test system is Allium cepa. Description: Phytotoxicity in Allium cepa (onion) seedling assessed as total fresh weight at 2.45 kg/ha applied as spray before seed sowing (reference value: 7.71 MT/ha). The conditions noted are these: in vivo, other. It counts as organism-based.
Data set [32] relates to Malva sylvestris. Description: Herbicidal activity against Malva sylvestris assessed as total dry weight at 2.45 kg/ha applied as spray before seed sowing (reference value: 4.1 MT/ha). Type of data set: functional.
Data set [33] concerns Malva sylvestris. Description: Herbicidal activity against Malva sylvestris assessed as total fresh weight at 2.45 kg/ha applied as spray before seed sowing (reference value: 23.6 MT/ha). Type of data set: functional.
In data set [34] the test system is Chenopodiastrum murale. Description: Herbicidal activity against Chenopodium murale assessed as total dry weight at 2.45 kg/ha applied as spray before seed sowing (reference value: 4.1 MT/ha). Type of data set: functional.
The test system of data set [35] is Cyperus rotundus. Description: Herbicidal activity against Cyperus rotundus assessed as total fresh weight at 2.45 kg/ha applied as spray before seed sowing (reference value: 23.6 MT/ha). It counts as functional.
Data set [36] relates to Allium cepa. Description: Phytotoxicity in Allium cepa (onion) seedling assessed as total fresh weight at 3.75 kg/ha applied as spray before seed sowing (reference value: 7.71 MT/ha). The conditions noted are these: in vivo, other. Type of data set: organism-based.
The subject of data set [37] is Chenopodiastrum murale. Description: Herbicidal activity against Chenopodium murale assessed as total dry weight at 3.75 kg/ha applied as spray before seed sowing (reference value: 4.1 MT/ha). It counts as functional.
The subject of data set [38] is Malva sylvestris. Description: Herbicidal activity against Malva sylvestris assessed as total fresh weight at 3.75 kg/ha applied as spray before seed sowing (reference value: 23.6 MT/ha). It counts as functional.
The subject of data set [39] is Cyperus rotundus. Description: Herbicidal activity against Cyperus rotundus assessed as total fresh weight at 3.75 kg/ha applied as spray before seed sowing (reference value: 23.6 MT/ha). It counts as functional.
Data set [40] deals with Cyperus rotundus. Description: Herbicidal activity against Cyperus rotundus assessed as total dry weight at 3.75 kg/ha applied as spray before seed sowing (reference value: 4.1 MT/ha). Type of data set: functional.
In data set [41] the test system is Malva sylvestris. Description: Herbicidal activity against Malva sylvestris assessed as total dry weight at 3.75 kg/ha applied as spray before seed sowing (reference value: 4.1 MT/ha). Type of data set: functional.
The test system of data set [42] is Chenopodiastrum murale. Description: Herbicidal activity against Chenopodium murale assessed as total fresh weight at 3.75 kg/ha applied as spray before seed sowing (reference value: 23.6 MT/ha). It counts as functional.

From ChEMBL document CHEMBL3045187, “Chemical weed control in seedbed sown onion (Allium cepa L.)” (Crop Prot, 2006) come the findings set out here.

With `CC(C)Oc1cc(-n2nc(C(C)(C)C)oc2=O)c(Cl)cc1Cl` [OXADIAZON], the Activity came to 10.8 MT/ha with Cyperus rotundus [1]; 15.69 MT/ha in the data set with Allium cepa [2]; 57% in the data set on Cyperus rotundus [3]; 10.8 MT/ha with Malva sylvestris [4]; 2.37 MT/ha in the data set with Malva sylvestris [5]; 57% with Malva sylvestris [6]. For the same compound, the Activity was determined as 2.37 MT/ha in the data set with Chenopodiastrum murale [7]; 57% in the data set with Chenopodiastrum murale [8]; 13.3 MT/ha with Cyperus rotundus [9]; 10.8 MT/ha in the data set on Chenopodiastrum murale [10]; 2.37 MT/ha in the data set with Cyperus rotundus [11]; 13.3 MT/ha in the data set with Chenopodiastrum murale [12]. Moreover, the Activity was found to be 13.37 MT/ha in the data set with Allium cepa [13] and 13.3 MT/ha in the data set with Malva sylvestris [14].

For the compound `CSc1nnc(C(C)(C)C)c(=O)n1N` [METRIBUZIN], the Activity was 3.32 MT/ha in the data set with Cyperus rotundus [15]; 17.1 MT/ha in the data set on Chenopodiastrum murale [16]; 17.1 MT/ha with Cyperus rotundus [17]; 3.32 MT/ha with Chenopodiastrum murale [18]; 3.32 MT/ha in the data set with Malva sylvestris [19]; 7.64 MT/ha in the data set on Allium cepa [20]. The Activity in the data set with Malva sylvestris [21] amounted to 17.1 MT/ha.

In the case of `COC(=O)c1c(Cl)c(Cl)c(C(=O)OC)c(Cl)c1Cl` [DACTHAL], the Activity with Malva sylvestris [22] came to 3.63 MT/ha; with Allium cepa [23], 8.2 MT/ha; in the data set with Chenopodiastrum murale [24] it was 3.63 MT/ha; in the data set on Cyperus rotundus [25] it was 3.63 MT/ha; with Malva sylvestris [26], 19 MT/ha; in the data set on Cyperus rotundus [27], 19 MT/ha. Moreover, in the data set on Chenopodiastrum murale [28], the Activity is recorded as 19 MT/ha.

`CNC(=O)N(C)c1nc2ccccc2s1` [METHABENZTHIAZURON]: the Activity with Chenopodiastrum murale [29] is recorded as 9 MT/ha; in the data set with Cyperus rotundus [30] it was 2.85 MT/ha; in the data set on Allium cepa [31] it was 7.18 MT/ha; in the data set with Malva sylvestris [32] it was 2.85 MT/ha; in the data set on Malva sylvestris [33], 9 MT/ha; in the data set with Chenopodiastrum murale [34], 2.85 MT/ha. For the same compound, the Activity in the data set on Cyperus rotundus [35] is recorded as 9 MT/ha.

On to `CN(C)C(=O)C(c1ccccc1)c1ccccc1` [DIPHENAMIDE], for which the Activity stood at 5.16 MT/ha in the data set with Allium cepa [36]; 4.79 MT/ha in the data set on Chenopodiastrum murale [37]; 21.5 MT/ha in the data set with Malva sylvestris [38]; 21.5 MT/ha in the data set with Cyperus rotundus [39]; 4.79 MT/ha in the data set on Cyperus rotundus [40]; 4.79 MT/ha in the data set on Malva sylvestris [41]. Also, in the data set with Chenopodiastrum murale [42], the Activity came to 21.5 MT/ha.
